Target: T1, Receptor-interacting serine/threonine-protein kinase 1 (Homo sapiens, UniProt Q13546)
T1 sequence (Q13546 whole entry): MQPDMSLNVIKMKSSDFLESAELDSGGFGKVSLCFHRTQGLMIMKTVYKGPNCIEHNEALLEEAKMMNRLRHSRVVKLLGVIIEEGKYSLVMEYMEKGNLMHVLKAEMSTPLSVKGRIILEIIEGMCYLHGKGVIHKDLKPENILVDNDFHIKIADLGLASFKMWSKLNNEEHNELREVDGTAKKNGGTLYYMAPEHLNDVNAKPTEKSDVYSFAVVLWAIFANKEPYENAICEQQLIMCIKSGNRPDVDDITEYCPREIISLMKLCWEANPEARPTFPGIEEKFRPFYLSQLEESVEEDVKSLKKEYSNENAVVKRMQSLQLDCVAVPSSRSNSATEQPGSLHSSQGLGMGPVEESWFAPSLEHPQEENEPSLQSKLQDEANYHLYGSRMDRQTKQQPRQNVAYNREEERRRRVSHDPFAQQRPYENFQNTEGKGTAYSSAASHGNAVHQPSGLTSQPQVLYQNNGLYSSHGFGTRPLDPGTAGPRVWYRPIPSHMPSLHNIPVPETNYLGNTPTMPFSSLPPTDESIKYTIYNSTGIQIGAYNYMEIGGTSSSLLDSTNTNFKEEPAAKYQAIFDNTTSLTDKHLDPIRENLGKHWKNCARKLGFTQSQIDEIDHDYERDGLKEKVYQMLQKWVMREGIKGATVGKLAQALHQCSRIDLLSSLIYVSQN
Assay: Binding affinity to RIP1 (unknown origin) by fluorescence polarization assay

IC50: 0.02 µM
Compound: O=C(N[C@H]1CNc2cc(Cl)ccc2NC1=O)c1nnc(Cc2ccccc2)[nH]1

From ChEMBL document CHEMBL4325917, “Heterocyclic Amides as Kinase Inhibitors” (ACS Med Chem Lett, 2018)
